Results on one compound are retold here after PMC11369081, “Molecular mechanism of prolactin-releasing peptide recognition and signaling via its G protein-coupled receptor” (Cell Discovery, 2024).

What all share (type): cell-based
In one test the target is T1, PrRPR V145A (Homo sapiens, UniProt P49683, V145A).
T1 construct: expressed in transfected cells; host or cells: AD293 cells
The experiment in a line: BRET2 Gq dissociation, V145A. Conditions: V145A (3.36), Gq-coupling, AD293 cells; mean ± S.E.M., n = 3; P <0.0001 vs WT; read-out: BRET2 pEC50 (converted). As to the method:
(§1) AD293 cells (Agilent) were propagated in Dulbecco’s Modified Eagle Medium (DMEM, Thermo Fisher Scientific), enriched with 10% fetal bovine serum (FBS, Thermo Fisher Scientific), and maintained at 37 °C in a 5% CO2 environment. Cells were then seeded in 6-well dishes at a density of 130,000–150,000 cells per mL and allowed to incubate overnight. On the next day, cells were transfected with plasmids at a 1:1:1:1 ratio for receptor:Gα-RLuc8:Gβ:Gγ-GFP2[52]. PEI MAX 40 K (BIOHUB) was utilized to form complex with the plasmids at a ratio of 3 µL PEI per µg of plasmids, in OptiMEM (Gibco-Thermo Fisher Scientific) at a concentration of 10 ng plasmids per µL OptiMEM. After 24 h of incubation, the culture was harvested by centrifugation with PBS. The cell suspension was then allocated into a white 384-well plate at a volume of 30 µL per well, followed by the addition of 10 µL of freshly prepared 50 µM coelenterazine 400a (Yeasen). […] Plates were subsequently read in a BioTek Synergy H1 microplate reader (BioTek) equipped with 395 nm (RLuc8-coelenterazine 400a) and 510 nm (GFP2) emission filters. BRET2 ratios were calculated as the ratio of the GFP2 emission to RLuc8 emission. […]
(§2) Supplementary Fig. S4 | Effects of mutations in the ligand-binding pocket and G protein intereface of Gq coupled PrRPR by BRET2 assay. […] BRET2 assay signals were measured after stimulation with PrRP20. […]

In the next test the target is T2, PrRPR L210A (Homo sapiens, UniProt P49683, L210A).
T2 construct: expressed in transfected cells; host or cells: AD293 cells
In words: BRET2 Gq dissociation, L210A. Conditions: L210A (ECL2), Gq-coupling, AD293 cells; mean ± S.E.M., n = 3; P <0.0001 vs WT; read-out: BRET2 pEC50 (converted). As to the method:
as §1, §2

In the next test the target is T3, PrRPR D302A (Homo sapiens, UniProt P49683, D302A).
T3 construct: Flag; expressed in transfected cells; host or cells: AD293 cells
The experiment in a line: BRET2 Gq dissociation, D302A. Conditions: D302A (6.59), Gq-coupling, AD293 cells; mean ± S.E.M., n = 3; P <0.0001 vs WT; read-out: BRET2 pEC50 (converted). As to the method:
as §1, §2

For another test, the target named is T4, PrRPR F313A (Homo sapiens, UniProt P49683, F313A).
T4 construct: Flag; expressed in transfected cells; host or cells: AD293 cells
The experiment in a line: BRET2 Gq dissociation, F313A. Conditions: F313A (7.31), Gq-coupling, AD293 cells; mean ± S.E.M., n = 3; P 0.0012 vs WT; read-out: BRET2 pEC50 (converted). As to the method:
as §1, §2

Test [1] has as its target T5, PrRPR E213A (Homo sapiens, UniProt P49683, E213A).
T5 construct: expressed in transfected cells; host or cells: AD293 cells
The experiment in a line: BRET2 Gi dissociation, E213A. Conditions: E213A (45.52), Gi-coupling, AD293 cells; mean ± S.E.M., n = 3; P <0.0001 vs WT; read-out: BRET2 pEC50 (converted). As to the method: (§3) AD293 cells (Agilent) were propagated in Dulbecco’s Modified Eagle Medium (DMEM, Thermo Fisher Scientific), enriched with 10% fetal bovine serum (FBS, Thermo Fisher Scientific), and maintained at 37 °C in a 5% CO2 environment. Cells were then seeded in 6-well dishes at a density of 130,000–150,000 cells per mL and allowed to incubate overnight. On the next day, cells were transfected with plasmids at a 1:1:1:1 ratio for receptor:Gα-RLuc8:Gβ:Gγ-GFP2[52]. PEI MAX 40 K (BIOHUB) was utilized to form complex with the plasmids at a ratio of 3 µL PEI per µg of plasmids, in OptiMEM (Gibco-Thermo Fisher Scientific) at a concentration of 10 ng plasmids per µL OptiMEM. After 24 h of incubation, the culture was harvested by centrifugation with PBS. The cell suspension was then allocated into a white 384-well plate at a volume of 30 µL per well, followed by the addition of 10 µL of freshly prepared 50 µM coelenterazine 400a (Yeasen). Following a 15-min equilibration period, cells were treated with 10 µL of ligand for an additional 5 min. Plates were subsequently read in a BioTek Synergy H1 microplate reader (BioTek) equipped with 395 nm (RLuc8-coelenterazine 400a) and 510 nm (GFP2) emission filters. BRET2 ratios were calculated as the ratio of the GFP2 emission to RLuc8 emission. Data were normalized to the baseline response of the ligand. […]

The target of a further test is T6, PrRPR W127A (Homo sapiens, UniProt P49683, W127A).
T6 construct: expressed in transfected cells; host or cells: AD293 cells
The experiment in a line: BRET2 Gq dissociation, W127A. Conditions: W127A (23.50), Gq-coupling, AD293 cells; mean ± S.E.M., n = 3; P <0.0001 vs WT; read-out: BRET2 pEC50 (converted). As to the method:
as §1, §2

In the next test the target is T7, PrRPR T117A (Homo sapiens, UniProt P49683, T117A).
T7 construct: expressed in transfected cells; host or cells: AD293 cells
The experiment in a line: BRET2 Gi dissociation, T117A. Conditions: T117A (2.61), Gi-coupling, AD293 cells; mean ± S.E.M., n = 3; P <0.0001 vs WT; read-out: BRET2 pEC50 (converted). As to the method:
as §3

The next test addresses T8, PrRPR Y120A (Homo sapiens, UniProt P49683, Y120A).
T8 construct: expressed in transfected cells; host or cells: AD293 cells
The experiment in a line: BRET2 Gq dissociation, Y120A. Conditions: Y120A (2.64), Gq-coupling, AD293 cells; mean ± S.E.M., n = 3; P <0.0001 vs WT; read-out: BRET2 pEC50 (converted). As to the method: as §1, §2

For test [2], the target named is T5, PrRPR E213A. In words: BRET2 Gq dissociation, E213A. Conditions: E213A (45.52), Gq-coupling, AD293 cells; mean ± S.E.M., n = 3; P <0.0001 vs WT; read-out: BRET2 pEC50 (converted). As to the method:
as §1, §2

The target in a further test is T9, PrRPR L294A (Homo sapiens, UniProt P49683, L294A).
T9 construct: Flag; expressed in transfected cells; host or cells: AD293 cells
In words: BRET2 Gq dissociation, L294A. Conditions: L294A (6.51), Gq-coupling, AD293 cells; mean ± S.E.M., n = 3; P <0.0001 vs WT; read-out: BRET2 pEC50 (converted). As to the method:
as §1, §2

The next test deals with T10, PrRPR E212A (Homo sapiens, UniProt P49683, E212A).
T10 construct: expressed in transfected cells; host or cells: AD293 cells
In words: BRET2 Gi dissociation, E212A. Conditions: E212A (45.51), Gi-coupling, AD293 cells; mean ± S.E.M., n = 3; P <0.0001 vs WT; read-out: BRET2 pEC50 (converted). As to the method: as §3

The next test addresses T11, PrRPR Y225A (Homo sapiens, UniProt P49683, Y225A).
T11 construct: Flag; expressed in transfected cells; host or cells: AD293 cells
The experiment in a line: BRET2 Gq dissociation, Y225A. Conditions: Y225A (5.38), Gq-coupling, AD293 cells; mean ± S.E.M., n = 3; P <0.0001 vs WT; read-out: BRET2 pEC50 (converted). As to the method:
as §1, §2

Peptide text beside a SMILES is read from it.

T5 sequence (P49683 whole entry E213A): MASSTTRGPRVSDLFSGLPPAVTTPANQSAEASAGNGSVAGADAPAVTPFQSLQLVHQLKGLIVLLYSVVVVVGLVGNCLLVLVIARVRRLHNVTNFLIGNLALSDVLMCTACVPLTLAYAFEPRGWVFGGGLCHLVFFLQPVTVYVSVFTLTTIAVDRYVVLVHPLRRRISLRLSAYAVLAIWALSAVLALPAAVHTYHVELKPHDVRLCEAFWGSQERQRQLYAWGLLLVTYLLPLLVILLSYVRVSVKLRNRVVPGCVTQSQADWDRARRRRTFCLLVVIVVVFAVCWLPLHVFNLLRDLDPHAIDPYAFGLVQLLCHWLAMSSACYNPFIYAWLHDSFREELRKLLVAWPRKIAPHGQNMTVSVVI
T8 sequence (P49683 whole entry Y120A): as the sequence (P49683 whole entry E213A) above, with Y120A, A213E counted along it
T6 sequence (P49683 whole entry W127A): as the sequence (P49683 whole entry E213A) above, with W127A, A213E counted along it
T11 sequence (P49683 whole entry Y225A): as the sequence (P49683 whole entry E213A) above, with A213E, Y225A counted along it
T1 sequence (P49683 whole entry V145A): as the sequence (P49683 whole entry E213A) above, with V145A, A213E counted along it
T4 sequence (P49683 whole entry F313A): as the sequence (P49683 whole entry E213A) above, with A213E, F313A counted along it
T7 sequence (P49683 whole entry T117A): as the sequence (P49683 whole entry E213A) above, with T117A, A213E counted along it
T2 sequence (P49683 whole entry L210A): as the sequence (P49683 whole entry E213A) above, with L210A, A213E counted along it
T3 sequence (P49683 whole entry D302A): as the sequence (P49683 whole entry E213A) above, with A213E, D302A counted along it
T10 sequence (P49683 whole entry E212A): as the sequence (P49683 whole entry E213A) above, with E212A, A213E counted along it
T9 sequence (P49683 whole entry L294A): as the sequence (P49683 whole entry E213A) above, with A213E, L294A counted along it

Consider `CC[C@H](C)[C@H](NC(=O)CNC(=O)[C@H](CCCNC(=N)N)NC(=O)[C@H](CO)NC(=O)[C@H](C)NC(=O)[C@H](Cc1ccc(O)cc1)NC(=O)[C@H](Cc1c[nH]c2ccccc12)NC(=O)[C@H](C)NC(=O)[C@@H]1CCCN1C(=O)[C@H](CC(N)=O)NC(=O)[C@@H](NC(=O)[C@H](CC(=O)O)NC(=O)[C@@H]1CCCN1C(=O)[C@@H](N)[C@@H](C)O)[C@@H](C)CC)C(=O)N[C@@H](CCCNC(=N)N)C(=O)N1CCC[C@H]1C(=O)N[C@H](C(=O)NCC(=O)N[C@@H](CCCNC(=N)N)C(=O)N[C@@H](Cc1ccccc1)C(N)=O)C(C)C` [PrRP20] (H-TPDINPAWYASRGIRPVGRF-NH2), for which the EC50 is 4.79 nM at PrRPR V145A; 7.08 nM at PrRPR L210A; 151 nM on PrRPR D302A; 3.39 nM at PrRPR F313A; 1380 nM on PrRPR E213A [1]; 240 nM at PrRPR W127A. For the same compound, the EC50 was 3470 nM at PrRPR T117A; 191 nM at PrRPR Y120A; 282 nM at PrRPR E213A [2]; 5.62 nM at PrRPR L294A; 398 nM on PrRPR E212A; 178 nM at PrRPR Y225A.
